{"source": "patent US9486440B2", "about": "“Uses of indole-ketones or indolidones as neuro-protective drugs” (UNIVERSITY OF MACAU, priority 2011, dated 2016)", "key": {"CGNs [1]": {"test_system": "CGNs", "assay": "Hoechst 33342 staining of CGNs after MPP+", "type": "cell-based, rat", "details": "20 μM, 35 μM MPP+", "procedure": "Chromatin condensation was detected by nucleus staining with Hoechst 33342 as described by Li et al., 2005. CGNs (2.7×10^6 cells) grown in a 35-mm dish were washed with ice-cold phosphate-buffered saline (PBS) and fixed with 4% formaldehyde in PBS. The cells were then stained with Hoechst 33342 (5 μg/ml) for 5 min at 4° C. The nuclei were visualized using a fluorescence microscope at ×400 magnification.\nChromatin condensation was detected by staining the cell nucleus with Hoechst 33342 as described by Li et al., 2005. CGNs (2.7×10^6 cells) grown in a 35-mm dish were washed with ice-cold phosphate-buffered saline (PBS), fixed with 4% formaldehyde in PBS, membrane-permeabilized in 0.1% Triton X-100 and blocked in 1% BSA. Cells were then exposed to a primary nNOS antibody (Santa Cruz) overnight at 4° C. followed by incubation at room temperature with an Alexa Fluor 488-conjugated secondary antibody. After immunostaining, cells were then stained with Hoechst 33342 (5 μg/ml) at 4° C. for 5 min. Images were acquired using a fluorescence microscope at ×100 magnification.\nTo quantify the percentage of apoptotic nuclei in each group, photos of each dish (n=3 dishes in each group for three independent experiments) were taken at five random fields and the numbers of apoptotic nuclei and total nuclei (n=300) were counted, and the percentage of apoptotic nuclei was averaged."}, "zebrafish": {"test_system": "zebrafish", "assay": "Toxicity to zebrafish", "type": "in vivo", "details": "SU5416 10 μM, VRI 3 μM, SU4312 up to 30 μM", "procedure": "(§1) Wild-type zebrafish (AB strain) and Tg (fli-1:EGFP) transgenic zebrafish were maintained as described in the Zebrafish Handbook (Westerfield, 1993). Zebrafish embryos were generated by natural pair-wise mating (3-12 months old) and raised at 28.5° C. in embryo medium (13.7 mM NaCl, 540 μM KCl, pH 7.4, 25 μM Na2HPO4, 44 μM KH2PO4, 300 μM CaCl2, 100 μM MgSO4, 420 μM NaHCO3, pH 7.4). […] An equal concentration of DMSO in embryo medium was used as vehicle control in each experiment.\nWild-type zebrafish (AB strain) and Tg(fli-1:EGFP) transgenic zebrafish were maintained as described in the Zebrafish Handbook (Westerfield, 1993). Zebrafish embryos were generated by natural pair-wise mating (3-12 months old) and were raised at 28.5° C. in embryo medium (13.7 mM NaCl, 540 μM KCl, pH 7.4, 25 μM Na2HPO4, 44 μM KH2PO4, 300 μM CaCl2, 100 μM MgSO4, 420 μM NaHCO3, pH 7.4). […] Equal concentration of DMSO in embryo medium was used as vehicle control in each experiment."}, "CGNs [2]": {"test_system": "CGNs", "assay": "FDA/PI double staining of CGNs after MPP+", "type": "cell-based, rat", "details": "20 μM, 35 μM MPP+", "procedure": "Viable granule neurons were stained with fluorescein formed from fluorescein diacetate (FDA), which is de-esterified only by living cells. Propidium iodide (PI) can penetrate cell membranes of dead cells to intercalate into double-stranded nucleic acids. Briefly, after incubation with 10 μg/ml FDA and 5 μg/ml PI for 15 min, the neurons were examined and photographed using UV light microscopy; and the pictures were compared with those photographed under phase contrast microscopy.\nViable granule neurons were stained with fluorescein formed from fluorescein diacetate (FDA) by esterase in viable cells. Propidium iodide (PI) can penetrate cell membranes of dead cells to intercalate into double-stranded nucleic acids. Briefly, after incubation with 10 μg/ml of FDA and 5 μg/ml of PI for 15 min, the neurons were examined and images were acquired using UV light microscopy for comparison with photos taken under phase contrast microscopy."}, "[3]": {"test_system": "DA neurons in the zebrafish brain", "assay": "MPTP zebrafish, whole-mount immunostaining against tyrosine hydroxylase", "type": "in vivo", "details": "200 μM MPTP, 2 days from 1 dpf; SU4312 3-30 μM, PTK787/ZK222584 0.3-3 μM, SU5416 0.1-1 μM, VRI 0.03-0.3 μM", "procedure": "as §1"}, "intracellular NO": {"test_system": "intracellular NO", "assay": "Intracellular NO in CGNs after MPP+ (DAF-FM diacetate)", "type": "cell-based, rat", "details": "35 μM MPP+", "procedure": "(§2) Intracellular NO was monitored with 4-Amino-5-methylamino-2′,7′-difluorofluorescein (DAF-FM) diacetate, a pH-insensitive fluorescent dye that emits increased fluorescence after reaction with an active intermediate of NO formed during the spontaneous oxidation of NO to NO2 (Sheng et al., 2005). DAF-FM solution was added to the culture medium (final concentration: 5 μM). After 30 min in a CO2 incubator, cultures were washed twice with PBS and incubated for an additional 30 min to allow complete de-esterification of the intracellular diacetate for stronger fluorescence. The DAF-FM fluorescence in CGNs was quantified by a multi-detection microplate reader using excitation and emission wavelengths of 495 nm and 515 nm, respectively. The measured fluorescence values were expressed as a percentage of the fluorescence in the control cells.\nas §2, with “(4-amino-5-methylamino-2′,7′-difluorofluorescein) DAF-FM” for “4-Amino-5-methylamino-2′,7′-difluorofluorescein (DAF-FM)”, “After incubation for” for “After”, “another” for “an additional”, “strong” for “stronger”"}, "SH-SY5Y cells": {"test_system": "SH-SY5Y cells", "assay": "MPP+-induced neurotoxicity in SH-SY5Y cells, MTT assay", "type": "cell-based, human", "details": "for cell proliferative or cytotoxic effects of the drug alone, SH-SY5Y cells: alone for 26 hours, 10 μM SU4312, 3 μM PTK787/ZK222584, 0.3 μM sunitinib; for toxicity to SH-SY5Y cells at higher concentration: higher concentration (sunitinib 1 μM), data not shown; for MPP+-induced neuronal death in SH-SY5Y cells (MTT): pre-treatment 2 hours, then 1 mM MPP+ for 24 hours", "procedure": "The human neuroblastoma SH-SY5Y cells were obtained from ATCC. The cells were maintained in supplemented Dulbecco's modified eagle medium (DMEM), 10% fetal bovine serum, 100 U/ml penicillin, and 100 μg/ml streptomycin in a 37° C., 5% CO2 incubator. PC12 pheochromocytoma cells were also obtained from ATCC. The cells were cultured in medium that consisted of DMEM, 10% heat-inactivated horse serum, 5% fetal bovine serum, 100 U/ml penicillin, and 100 μg/ml streptomycin in a 37° C., 5% CO2 incubator. All experiments were carried out 48 hours after the cells were seeded. […] The assay was performed according to the specifications of the manufacturer (MTT kit I; Roche Applied Science). […] After the incubation, 100 μl of the solvating solution (0.01 N HCl in 10% SDS solution) was added to each well for 16-20 hours. Absorbance of the samples was measured at a wavelength of 570 nm with 655 nm as a reference wavelength. Unless otherwise indicated, the extent of MTT conversion in cells exposed to MPP^+ is expressed as a percentage of the control."}}, "data": [{"smiles": "Cc1cc(C)c(/C=C2\\C(=O)Nc3ccccc32)[nH]1", "note": "[SU5416, (3Z)-3-[(3,5-dimethyl-1H-pyrrol-2-yl)methylidene]-1,3-dihydro-2H-indol-2-one]", "values": [{"measurement": "nuclear condensation / apoptotic nuclei (Hoechst 33342)", "setting": "CGNs [1]", "result": "significantly reversed neuronal apoptosis induced by MPP^+"}, {"measurement": "toxicity to zebrafish", "setting": "zebrafish", "result": "showed toxicity to zebrafish"}, {"measurement": "loss of neurons and morphological alterations (FDA/PI, phase contrast)", "setting": "CGNs [2]", "result": "significantly blocked the loss of neurons and reversed the morphological alteration"}, {"measurement": "MPTP-induced loss of DA neurons / decrease of TH+ region area", "setting": "[3]", "result": "significantly prevented the decrease in the area of TH^+ region induced by MPTP"}, {"measurement": "MPP+-stimulated NO production", "setting": "intracellular NO; measured at 8 hour", "result": "antagonized the stimulatory effect of MPP^+ on the NO production with an efficacy similar to 7-nitroindazole (15 μM)"}]}, {"smiles": "CN(C)c1ccc(C=C2C(=O)Nc3ccccc32)cc1", "note": "[SU4312, 3-[4-(dimethylamino)benzylidenyl]indolin-2-one]", "values": [{"measurement": "nuclear condensation / apoptotic nuclei (Hoechst 33342)", "setting": "CGNs [1]", "result": "significantly reversed nuclear condensation induced by MPP^+"}, {"measurement": "cell proliferative or cytotoxic effects of the drug alone, SH-SY5Y cells", "setting": "SH-SY5Y cells", "result": "did not show cell proliferative or cytotoxic effects"}, {"measurement": "toxicity to SH-SY5Y cells at higher concentration", "setting": "SH-SY5Y cells", "result": "at higher concentration conferred toxicity"}, {"measurement": "MPP+-induced neuronal death in SH-SY5Y cells (MTT)", "setting": "SH-SY5Y cells", "result": "prevented MPP^+-induced dopaminergic neuronal death at 3-10 μM in SH-SY5Y cells"}, {"measurement": "toxicity to zebrafish", "setting": "zebrafish", "result": "did not induce any neurotoxicity"}, {"measurement": "loss of neurons and morphological alterations (FDA/PI, phase contrast)", "setting": "CGNs [2]", "result": "significantly blocked MPP^+-induced loss of neurons and reversed MPP^+-induced morphological alterations"}, {"measurement": "MPTP-induced loss of DA neurons / decrease of TH+ region area", "setting": "[3]", "result": "significantly alleviated the loss of DA neurons"}, {"measurement": "MPP+-induced elevation of intracellular NO level", "setting": "intracellular NO; pre-treatment 2 hours, 24 hours, SU4312 3-30 μM, 7-NI 3-10 μM", "result": "attenuated MPP^+-triggered elevation of intracellular NO level"}]}, {"smiles": "Clc1ccc(Nc2nnc(Cc3ccncc3)c3ccccc23)cc1", "note": "[PTK787/ZK222584]", "values": [{"measurement": "cell proliferative or cytotoxic effects of the drug alone, SH-SY5Y cells", "setting": "SH-SY5Y cells", "result": "did not show cell proliferative or cytotoxic effects"}, {"measurement": "toxicity to SH-SY5Y cells at higher concentration", "setting": "SH-SY5Y cells", "result": "at higher concentration conferred toxicity"}, {"measurement": "MPP+-induced neuronal death in SH-SY5Y cells (MTT)", "setting": "SH-SY5Y cells", "result": "at 3 μM failed to block neuronal loss induced by MPP^+"}, {"measurement": "MPP+-induced neuronal death in SH-SY5Y cells (MTT)", "setting": "SH-SY5Y cells; listed as PTK787", "result": "at 1 and 3 μM failed to block neuronal loss induced by MPP^+"}]}]}
